Read-outs that look alike come from different tables or passages of the source.

The experiment deals with T1, IRAK4 (Homo sapiens, UniProt Q9NWZ3).
T1 construct: Degradation of IRAK4 in OCI-LY10 was quantitatively measured using Meso Scale Discovery technology; endogenous in cells; host or cells: OCI-LY10
T1 sequence (Q9NWZ3 1-460): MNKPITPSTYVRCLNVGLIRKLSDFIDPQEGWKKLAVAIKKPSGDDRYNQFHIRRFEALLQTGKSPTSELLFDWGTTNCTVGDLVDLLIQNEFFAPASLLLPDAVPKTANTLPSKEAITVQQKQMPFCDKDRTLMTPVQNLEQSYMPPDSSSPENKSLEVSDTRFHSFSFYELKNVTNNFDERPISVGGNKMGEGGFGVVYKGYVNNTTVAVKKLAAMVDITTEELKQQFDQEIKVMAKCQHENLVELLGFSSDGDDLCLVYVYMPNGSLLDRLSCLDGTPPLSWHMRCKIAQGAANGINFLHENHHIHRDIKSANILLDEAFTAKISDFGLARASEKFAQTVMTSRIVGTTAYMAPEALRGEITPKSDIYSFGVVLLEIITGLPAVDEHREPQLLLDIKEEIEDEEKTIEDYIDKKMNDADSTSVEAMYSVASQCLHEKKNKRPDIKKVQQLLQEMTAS
As to the kind of experiment: IRAK4 MSD Degradation in OCI-LY10. Format: cell-based. As to conditions: OCI-LY10 cells, MSD. The method in brief: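 DC50, from a three-parameter logistic fit and reported as letter bins A (<0.01 μM), B, C, D (>0.2 μM or not tested), reflects IRAK4 loss measured by MSD electrochemiluminescence in OCI-LY10 lysates. Treatment: 8 doses, 1:3 steps, top 1 to 10 μM, 4 to 24 h, 37 °C.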

[1] abbreviates: 4 hrs incubation, read-out: IRAK4 degradation in OCI-LY10 at 4 hrs: DC50.
Setting [2] is: 24 hrs incubation, read-out: IRAK4 degradation in OCI-LY10 at 24 hrs: DC50.

Usually DC50 stands for the concentration at which degradation of the target reaches its halfway point. In the case of `COc1cc([C@H]2CC[C@H](CN3CCC(OCC#Cc4cccc5c4n(C)c(=O)n5C4CCC(=O)NC4=O)CC3)CC2)ccc1NC(=O)c1cnn2ccc(N3C[C@H]4C[C@@H]3CO4)nc12` (stereo partly drawn) [I-184], the 50% degradation concentration (DC50) under setting [1] was greater than 200 nM and the DC50 under setting [2] was greater than 200 nM.
For `COc1cc2nn([C@H]3CC[C@H](CN4CCC5(CC4)CCN(c4cccc6c4n(C)c(=O)n6C4CCC(=O)NC4=O)CC5)CC3)cc2cc1NC(=O)c1cncc(C(C)(C)C#N)c1` (stereo partly drawn) [I-185], the DC50 was greater than 200 nM under setting [1] and greater than 200 nM under setting [2].
`Cn1c(=O)n(C2CCC(=O)NC2=O)c2cccc(N3CCC4(CCN(C[C@H]5CC[C@H](n6cc7cc(NC(=O)c8cncc(C#N)c8)c(F)cc7n6)CC5)CC4)CC3)c21` (stereo partly drawn) [I-186]: the DC50 is greater than 200 nM under setting [1] and greater than 200 nM under setting [2].
For `Cn1c(=O)n(C2CCC(=O)NC2=O)c2cccc(N3CCC4(CCN(C[C@H]5CC[C@H](n6cc7cc(NC(=O)c8cncc(C#N)c8)c(C(F)F)cc7n6)CC5)CC4)CC3)c21` (stereo partly drawn) [I-187], the DC50 runs as follows: under setting [1], greater than 200 nM; under setting [2], greater than 200 nM.
With `Cn1c(=O)n(C2CCC(=O)NC2=O)c2cccc(N3CCC4(CCN(C[C@H]5CC[C@@H](n6cc(NC(=O)c7cnn8ccc(N9CC%10C[C@@H]9CO%10)nc78)c(C(F)F)n6)CC5)CC4)CC3)c21` (stereo partly drawn) [I-188], the DC50 under setting [1] was less than 10 nM and the DC50 under setting [2] was greater than 200 nM.
For the compound `Cn1c(=O)n(C2CCC(=O)NC2=O)c2cccc(N3CCN(CC4CCC(n5cc(NC(=O)c6cnn7ccc(N8CC9C[C@@H]8CO9)nc67)c(C(F)F)n5)CC4)CC3)c21` (stereo partly drawn) [I-189], the DC50 runs as follows: under setting [1], 10 to 100 nM; under setting [2], greater than 200 nM.
Taken in the same sequence, the figures for `Cn1c(=O)n(C2CCC(=O)NC2=O)c2cccc(CN3CCN(C[C@H]4CC[C@H](n5cc(NC(=O)c6cnn7ccc(N8CC9C[C@@H]8CO9)nc67)c(C(F)F)n5)CC4)CC3)c21` (stereo partly drawn) [I-190] were 10 to 100 nM and greater than 200 nM.
As for `COCc1cncc(C(=O)Nc2cc3cn([C@H]4CC[C@H](CN5CCC6(CC5)CCN(c5cccc7c5n(C)c(=O)n7C5CCC(=O)NC5=O)CC6)CC4)nc3cc2OC)c1` (stereo partly drawn) [I-191], the DC50 is, setting by setting: under setting [1], 10 to 100 nM; under setting [2], greater than 200 nM.
In the case of `CC([C@H]1CC[C@H](n2cc(NC(=O)c3cnn4ccc(C5CC6C[C@@H]5CO6)nc34)c(C(F)F)n2)CC1)N1CCC(OCC#Cc2cccc3c2n(C)c(=O)n3C2CCC(=O)NC2=O)CC1` (stereo partly drawn) [I-192], the 50% degradation concentration (DC50) by setting is: under setting [1], greater than 200 nM; under setting [2], greater than 200 nM.
Consider `Cn1c(=O)n(C2CCC(=O)NC2=O)c2cccc(C#CCOC3CCN(C(C#N)[C@H]4CC[C@H](n5cc(NC(=O)c6cnn7ccc(N8C[C@H]9C[C@@H]8CO9)nc67)c(C(F)F)n5)CC4)CC3)c21` (stereo partly drawn) [I-193, N-[1-[4-[cyano-[4-[3-[1-(2,6-dioxo-3-piperidyl)-3-methyl-2-oxo-benzimidazol-4-yl]prop-2-ynoxy]-1-piperidyl]methyl]cyclohexyl]-3-(difluoromethyl)pyrazol-4-yl]-5-[(1R,4R)-2-oxa-5-azabicyclo[2.2.1]heptan-5-yl]pyrazolo[1,5-a]pyrimidine-3-carboxamide], for which the DC50 was greater than 200 nM under setting [1] and greater than 200 nM under setting [2].
On to `CC([C@H]1CC[C@H](n2cc(NC(=O)c3cnn4ccc(N5C[C@H]6C[C@@H]5CO6)nc34)c(C(F)F)n2)CC1)N1CCN(CC#Cc2cccc3c2n(C)c(=O)n3C2CCC(=O)NC2=O)CC1` (stereo partly drawn) [I-194], for which the DC50 is, setting by setting: under setting [1], greater than 200 nM; under setting [2], greater than 200 nM.
Turning to `CC([C@H]1CC[C@H](n2cc(NC(=O)c3cnn4ccc(N5C[C@H]6C[C@@H]5CO6)nc34)c(C(F)F)n2)CC1)N1CCN(CCCc2cccc3c2n(C)c(=O)n3C2CCC(=O)NC2=O)CC1` (stereo partly drawn) [I-195], the DC50 was greater than 200 nM under setting [1] and greater than 200 nM under setting [2].
As for `Cn1c(=O)n(C2CCC(=O)NC2=O)c2cccc(C#CCN3CCN(C(C#N)[C@H]4CC[C@H](n5cc(NC(=O)c6cnn7ccc(N8C[C@H]9C[C@@H]8CO9)nc67)c(C(F)F)n5)CC4)CC3)c21` (stereo partly drawn) [I-196], the half-maximal degradation concentration (DC50) under setting [1] was greater than 200 nM and the DC50 under setting [2] was 10 to 100 nM.
In the same order, the values of `Cn1c(=O)n(C2CCC(=O)NC2=O)c2cccc(CCCN3CCN(C(C#N)[C@H]4CC[C@H](n5cc(NC(=O)c6cnn7ccc(N8C[C@H]9C[C@@H]8CO9)nc67)c(C(F)F)n5)CC4)CC3)c21` (stereo partly drawn) [I-197] are 10 to 100 nM and greater than 200 nM.
As to `O=C1CCC(c2ccc(C#CCOC3CCN(C[C@H]4CC[C@H](n5cc(NC(=O)c6cnn7ccc(N8C[C@H]9C[C@@H]8CO9)nc67)c(C(F)F)n5)CC4)CC3)cc2)C(=O)N1` (stereo partly drawn) [I-198], the DC50 is, setting by setting: under setting [1], 10 to 100 nM; under setting [2], 10 to 100 nM.
On to `O=C1CCC(c2cccc(C#CCOC3CCN(C[C@H]4CC[C@H](n5cc(NC(=O)c6cnn7ccc(N8C[C@H]9C[C@@H]8CO9)nc67)c(C(F)F)n5)CC4)CC3)c2)C(=O)N1` (stereo partly drawn) [I-199], for which the DC50 under setting [1] is greater than 200 nM and the DC50 under setting [2] is 10 to 100 nM.
Taken in the same sequence, the figures for `Cn1c(=O)n(C2CCC(=O)NC2=O)c2cccc(N3CCN([C@H]4CC[C@H](n5cc(NC(=O)c6cnn7ccc(N8C[C@H]9C[C@@H]8CO9)nc67)c(C(F)F)n5)CC4)CC3)c21` (stereo partly drawn) [I-200] were 10 to 100 nM and greater than 200 nM.
For `Cn1c(=O)n(C2CCC(=O)NC2=O)c2cccc(C3CCN(C4CCN([C@H]5CC[C@H](n6cc(NC(=O)c7cnn8ccc(N9C[C@H]%10C[C@@H]9CO%10)nc78)c(C(F)F)n6)CC5)CC4)CC3)c21` (stereo partly drawn) [I-202], the DC50 was less than 10 nM under setting [1] and greater than 200 nM under setting [2].
Regarding `Cn1c(=O)n(C2CCC(=O)NC2=O)c2cccc(N3CCC(N4CCN([C@H]5CC[C@H](n6cc(NC(=O)c7cnn8ccc(N9C[C@H]%10C[C@@H]9CO%10)nc78)c(C(F)F)n6)CC5)CC4)CC3)c21` (stereo partly drawn) [I-203], the DC50 under setting [1] is greater than 200 nM and the DC50 under setting [2] is greater than 200 nM.
In the case of `COc1cc2nc([C@H]3CC[C@H](CN4CCC5(CC4)CCN(c4cccc6c4n(C)c(=O)n6C4CCC(=O)NC4=O)CC5)CC3)ccc2cc1NC(=O)c1cncc(C#N)c1` (stereo partly drawn) [I-204], the DC50 runs as follows: under setting [1], less than 10 nM; under setting [2], greater than 200 nM.
As to `Cn1c(=O)n(C2CCC(=O)NC2=O)c2cccc(C#CCOC3CCN(C[C@H]4CC[C@H](c5nc(C(F)F)c(NC(=O)c6cnn7ccc(N8C[C@H]9C[C@@H]8CO9)nc67)s5)CC4)CC3)c21` (stereo partly drawn) [I-205], the DC50 is, setting by setting: under setting [1], greater than 200 nM; under setting [2], greater than 200 nM.
As to `Cn1c(=O)n(C2CCC(=O)NC2=O)c2cccc(C#CCOC3CCN(C[C@H]4CC[C@H](c5nc(C(F)F)c(NC(=O)c6cnn7ccc(N8C[C@H]9C[C@@H]8CO9)nc67)o5)CC4)CC3)c21` (stereo partly drawn) [I-206], the DC50 under setting [1] was greater than 200 nM and the DC50 under setting [2] was greater than 200 nM.
`Cn1c(=O)n(C2CCC(=O)NC2=O)c2cccc(C#CCOC3CCN(CC4CCN(c5nc(C(F)F)c(NC(=O)c6cnn7ccc(N8C[C@H]9C[C@@H]8CO9)nc67)s5)CC4)CC3)c21` (stereo partly drawn) [I-207]: the DC50 under setting [1] was greater than 200 nM and the DC50 under setting [2] is greater than 200 nM.
On to `Cn1c(=O)n(C2CCC(=O)NC2=O)c2cccc(C#CCOC3CCN(CC4CCN(c5nc(C(F)F)c(NC(=O)c6cnn7ccc(N8C[C@H]9C[C@@H]8CO9)nc67)o5)CC4)CC3)c21` (stereo partly drawn) [I-208], for which the DC50 is greater than 200 nM under setting [1] and greater than 200 nM under setting [2].
As for `O=C1CCN(c2cccc(C#CCOC3CCN(C[C@H]4CC[C@H](n5cc(NC(=O)c6cnn7ccc(N8C[C@H]9C[C@@H]8CO9)nc67)c(C(F)F)n5)CC4)CC3)c2)C(=O)N1` [I-209], the DC50 runs as follows: under setting [1], greater than 200 nM; under setting [2], greater than 200 nM.
Take `Cn1c(=O)n(C2CCC(=O)NC2=O)c2cccc(C#CCOC3CCN(C[C@H]4CC[C@H](n5cc(NC(=O)c6cccc(C(F)(F)F)n6)c(C(F)F)n5)CC4)CC3)c21` (stereo partly drawn) [I-210]: the DC50 under setting [1] is greater than 200 nM and the DC50 under setting [2] was greater than 200 nM.
For the compound `Cn1c(=O)n(C2CCC(=O)NC2=O)c2cccc(C#CCN3CCN(C[C@H]4CC[C@H](n5cc(NC(=O)c6cccc(C(F)(F)F)n6)c(C(F)F)n5)CC4)CC3)c21` (stereo partly drawn) [I-211], the half-maximal degradation concentration (DC50) reads like this: under setting [1], greater than 200 nM; under setting [2], greater than 200 nM.
As for `Cn1c(=O)n(C2CCC(=O)NC2=O)c2cccc(CCCOC3CCN(C[C@H]4CC[C@H](n5cc(NC(=O)c6cccc(C(F)(F)F)n6)c(C(F)F)n5)CC4)CC3)c21` (stereo partly drawn) [I-212], the 50% degradation concentration (DC50) by setting is: under setting [1], greater than 200 nM; under setting [2], greater than 200 nM.
For the compound `Cn1c(=O)n(C2CCC(=O)NC2=O)c2cccc(CCCN3CCN(C[C@H]4CC[C@H](n5cc(NC(=O)c6cccc(C(F)(F)F)n6)c(C(F)F)n5)CC4)CC3)c21` (stereo partly drawn) [I-213], the DC50 by setting is: under setting [1], greater than 200 nM; under setting [2], greater than 200 nM.
Consider `COc1nn([C@H]2CC[C@H](CN3CC4CC3CN4c3cccc4c3n(C)c(=O)n4C3CCC(=O)NC3=O)CC2)cc1NC(=O)c1cnn2cc(N(C)C)cnc12` (stereo partly drawn) [I-214], for which the 50% degradation concentration (DC50) is, setting by setting: under setting [1], greater than 200 nM; under setting [2], greater than 200 nM.
`CN(C)c1cnc2c(C(=O)Nc3cn([C@H]4CC[C@H](CN5CCN(c6cccc7c6n(C)c(=O)n7C6CCC(=O)NC6=O)CC5)CC4)nc3F)cnn2c1` (stereo partly drawn) [I-215]: the DC50 runs as follows: under setting [1], greater than 200 nM; under setting [2], greater than 200 nM.
Consider `Cc1nn([C@H]2CC[C@H](CN3CCN(c4cccc5c4n(C)c(=O)n5C4CCC(=O)NC4=O)CC3)CC2)cc1NC(=O)c1cnn2cc(N(C)C)cnc12` (stereo partly drawn) [I-216], for which the DC50 by setting is: under setting [1], greater than 200 nM; under setting [2], greater than 200 nM.
On to `Cc1nn([C@H]2CC[C@H](CN3CCN(c4ccc5c(c4)n(C)c(=O)n5C4CCC(=O)NC4=O)CC3)CC2)cc1NC(=O)c1cnn2cc(N(C)C)cnc12` (stereo partly drawn) [I-217], for which the DC50 reads like this: under setting [1], greater than 200 nM; under setting [2], greater than 200 nM.
